Assay results from patent US8513423B2 (Janssen Pharmaceutica, NV, priority 2010, dated 2013).
Numbering of substitutions follows the chain as printed. Where two headings read alike, the source gives them in different places.

How the values were obtained:
[1] = target: T1, purified wild type MGL (wt-MGLL 6H-11-313) (Homo sapiens, UniProt Q99685); experiment: MGL enzyme activity assay (4MU-B cleavage), wild type MGL; type: biochemical; settings: 10 μM 4MU-B, 5 nM enzyme, 37° C., read-out: MGL wild type inh IC50
T1 construct: purified wild type MGL (wt-MGLL 6H-11-313)
T1 sequence (Q99685 1-303): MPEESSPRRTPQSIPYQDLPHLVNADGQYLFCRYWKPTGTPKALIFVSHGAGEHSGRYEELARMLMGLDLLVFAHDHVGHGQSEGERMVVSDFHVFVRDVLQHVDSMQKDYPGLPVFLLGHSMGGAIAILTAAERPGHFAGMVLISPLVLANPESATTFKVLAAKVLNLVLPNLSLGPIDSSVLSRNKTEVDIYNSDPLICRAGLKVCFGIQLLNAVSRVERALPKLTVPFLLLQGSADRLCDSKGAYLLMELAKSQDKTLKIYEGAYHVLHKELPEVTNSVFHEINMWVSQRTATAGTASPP
Procedure, shortened: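 Enzyme (5 nM final) cleaved 4MU-B (10 μM final) in 20 mM PIPES pH 7.0 with 150 mM NaCl and 0.001% Tween 20. Compounds were tested at 17 to 0.0003 μM final. Fluorescence (ex 335/em 440 nm) was monitored at 37° C for 5 min, and IC50 was fitted from fractional activity versus inhibitor concentration.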

mutant MGL = target: T2, mutant MGL (Homo sapiens, UniProt Q99685, L169S/L176S); experiment: MGL ThermoFluor assay - mutant; type: binding
T2 construct: purified mutant MGL (mut-MGLL 11-313 L179S L186S)
T2 sequence (Q99685 1-303 L169S/L176S): T1 sequence (Q99685 1-303) with L169S, L176S
Procedure, shortened: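 Thermal shift binding with 0.07 mg/ml L169S/L176S MGL, 100 μM 1,8-ANS, 200 mM NaCl, 0.001% Tween-20, 50 mM PIPES pH 7.0. Heated 40–90 °C at 1 °C/min, fluorescence (em 500 nm) tracked to give Tm; Kd fitted from 11-point concentration–Tm response, qKd when stocks quantified by qNMR.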

MGL = target: T3, MGL (Rattus norvegicus, UniProt Q8R431); experiment: 2-AG accumulation assay in rat brain homogenate; type: biochemical; settings: compound @1 μM, read-out: Rat Brain 2AG % VehCntrl (%) @1 μM
T3 construct: one g rat brain was homogenized; from tissue; host or cells: rat brain homogenate
T3 sequence (Q8R431 1-303): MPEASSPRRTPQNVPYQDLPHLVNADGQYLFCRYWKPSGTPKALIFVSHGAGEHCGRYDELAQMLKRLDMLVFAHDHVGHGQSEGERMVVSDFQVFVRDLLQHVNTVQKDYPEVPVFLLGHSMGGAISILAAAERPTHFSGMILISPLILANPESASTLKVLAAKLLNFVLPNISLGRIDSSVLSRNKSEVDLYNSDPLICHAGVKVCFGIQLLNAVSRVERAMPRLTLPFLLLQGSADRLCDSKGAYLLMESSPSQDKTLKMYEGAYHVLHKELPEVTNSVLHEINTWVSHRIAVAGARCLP
Method: After a 15-min incubation time at 37° C., CaCl2 (final concentration=10 mM) was added and then incubated for 15 min at 37° C. in a total volume of 5 mL. The reactions were stopped with 6 mL organic solvent extraction solution of 2:1 chloroform/methanol. Accumulated 2-AG in the organic phase was measured by a HPLC/MS method, according to the following equation: percent vehicle=(2-AG accumulation in the presence of compound/2-AG accumulation in vehicle)×100.

[2] = 0.07 mg/ml mutant MGL, pH=7.0, read-out: MGL mutant ThermoFluor Kd
[3] = compound concentration measured by qNMR, read-out: MGL mutant ThermoFluor qKd (using qNMR conc.)

IC50 [1] [nM] | Kd (mutant MGL; [2]) [nM] | 2-AG accumulation, percent of vehicle control at 1 µM (MGL) [%] | Kd (mutant MGL; [3]) [nM] | Compound
< 5 | 2.6 | 779 |  | O=C(c1ccc2c(ccn2-c2ccc(C(F)(F)F)cc2)c1)N1CC(C2CCN(C(=O)c3nccs3)CC2)C1 [Cpd 31, 5-({3-[1-(1,3-Thiazol-2-ylcarbonyl)piperidin-4-yl]azetidin-1-yl}carbonyl)-1-[4-(trifluoromethyl)phenyl]-1H-indole]
< 5 |  | 385 | 12.2 | O=C(c1nccs1)N1CC(C2CCN(C(=O)c3ccc(-c4ccccc4)cc3F)CC2)C1 [Cpd 45]
5 | 15.5 | 425 |  | O=C(c1ccc2c(ccn2-c2ccc(F)c(F)c2)c1)N1CC(C2CCN(C(=O)c3cscn3)CC2)C1 [Cpd 38]
17.3 | 99 | 184 |  | O=C(c1cccc(-c2cccc(F)c2)c1)N1CC(C2CCN(C(=O)c3nccs3)CC2)C1 [Cpd 17, 4-{1-[(3′-Fluorobiphenyl-3-yl)carbonyl]azetidin-3-yl}-1-(1,3-thiazol-2-ylcarbonyl)piperidine]
46.6 |  | 225 | 33.3 | O=C(c1cccc(-c2cccc(F)c2)c1)N1CCC(C2CN(C(=O)c3ccc[nH]3)C2)CC1 [Cpd 53, 1-[(3′-Fluorobiphenyl-3-yl)carbonyl]-4-[1-(1H-pyrrol-2-ylcarbonyl)azetidin-3-yl]piperidine]
71.5 | 30.4 | 193 | 32.2 | O=C(c1cccc(-c2cccc(F)c2)c1)N1CCC(C2CN(C(=O)c3cscn3)C2)CC1 [Cpd 52, 1-[(3′-Fluorobiphenyl-3-yl)carbonyl]-4-[1-(1,3-thiazol-4-ylcarbonyl)azetidin-3-yl]piperidine]
13.8 |  | 788 | 8 | O=C(c1ccc2c(ccn2-c2ccc(F)cc2)c1)N1CCC(C2CN(C(=O)c3ccc[nH]3)C2)CC1 [Cpd 74, 1-(4-Fluorophenyl)-5-({4-[1-(1H-pyrrol-2-ylcarbonyl)azetidin-3-yl]piperidin-1-yl}carbonyl)-1H-indole]
8 | 6.6 | 470 |  | O=C(c1ccc(-c2cccc(C(F)(F)F)c2)cc1)N1CC(C2CCN(C(=O)c3ccc[nH]3)CC2)C1 [Cpd 22, 1-(1H-Pyrrol-2-ylcarbonyl)-4-(1-{[3′-(trifluoromethyl)biphenyl-4-yl]carbonyl}azetidin-3-yl)piperidine]
< 5 |  | 383 | 18.9 | O=C(c1ccc(Cc2ccc(C(F)(F)F)cc2)cc1)N1CCC(C2CN(C(=O)c3cscn3)C2)CC1 [Cpd 64, 4-[1-(1,3-Thiazol-4-ylcarbonyl)azetidin-3-yl]-1-({4-[4-(trifluoromethyl)benzyl]phenyl}carbonyl)piperidine]
9 | 13.3 | 634 |  | O=C(c1ccc(Cc2ccc(C(F)(F)F)cc2)cc1)N1CC(C2CCN(C(=O)c3nccs3)CC2)C1 [Cpd 27, 1-(1,3-Thiazol-2-ylcarbonyl)-4-[1-({4-[4-(trifluoromethyl)benzyl]phenyl}carbonyl)azetidin-3-yl]piperidine]
< 5 | 3.6 | 303 |  | Cc1c(C(=O)N2CC(C3CCN(C(=O)c4ccc[nH]4)CC3)C2)sc2cc(C(F)(F)F)ccc12 [Cpd 26, 4-(1-{[3-Methyl-6-(trifluoromethyl)-1-benzothiophen-2-yl]carbonyl}azetidin-3-yl)-1-(1H-pyrrol-2-ylcarbonyl)piperidine]
13 |  | 733 | 2 | O=C(c1ccc(-c2ccc(C(F)(F)F)s2)cc1)N1CCC(C2CN(C(=O)c3cscn3)C2)CC1 [Cpd 55, 4-[1-(1,3-Thiazol-4-ylcarbonyl)azetidin-3-yl]-1-({4-[5-(trifluoromethyl)thiophen-2-yl]phenyl}carbonyl)piperidine]
9 |  | 361 | 94.6 | O=C(c1ccc2nc(-c3ccccc3)oc2c1)N1CC(C2CCN(C(=O)c3ccc[nH]3)CC2)C1 [Cpd 40, 2-Phenyl-6-({3-[1-(1H-pyrrol-2-ylcarbonyl)piperidin-4-yl]azetidin-1-yl}carbonyl)-1,3-benzoxazole]
< 5 |  | 860 | 4.9 | O=C(c1ccc2c(ccn2-c2ccc(F)c(F)c2)c1)N1CCC(C2CN(C(=O)c3ccc[nH]3)C2)CC1 [Cpd 80, 1-(3,4-Difluorophenyl)-5-({4-[1-(1H-pyrrol-2-ylcarbonyl)azetidin-3-yl]piperidin-1-yl}carbonyl)-1H-indole]
12 |  | 875 | 4.8 | O=C(c1ccc2c(ccn2-c2ccc(F)cc2)c1)N1CCC(C2CN(C(=O)c3cscn3)C2)CC1 [Cpd 73, 1-(4-Fluorophenyl)-5-({4-[1-(1,3-thiazol-4-ylcarbonyl)azetidin-3-yl]piperidin-1-yl}carbonyl)-1H-indole]
< 5 |  | 498 | 24.5 | O=C(c1ccc2c(ccn2-c2ccc(F)cc2)c1)N1CC(C2CCN(C(=O)c3ccc[nH]3)CC2)C1 [Cpd 42, 1-(4-Fluorophenyl)-5-({3-[1-(1H-pyrrol-2-ylcarbonyl)piperidin-4-yl]azetidin-1-yl}carbonyl)-1H-indole]
< 5 |  | 736 | 1.8 | O=C(c1ccc(-c2ccc(C(F)(F)F)s2)cc1)N1CCC(C2CN(C(=O)c3nccs3)C2)CC1 [Cpd 54, 4-[1-(1,3-Thiazol-2-ylcarbonyl)azetidin-3-yl]-1-({4-[5-(trifluoromethyl)thiophen-2-yl]phenyl}carbonyl)piperidine]
11 | 20.2 | 346 | 9.4 | O=C(c1ccc(Cc2cccc(C(F)(F)F)c2)cc1)N1CCC(C2CN(C(=O)c3ccc[nH]3)C2)CC1 [Cpd 59, 4-[1-(1H-Pyrrol-2-ylcarbonyl)azetidin-3-yl]-1-({4-[3-(trifluoromethyl)benzyl]phenyl}carbonyl)piperidine]
< 5 | 4.1 | 272 | 3.1 | O=C(c1ccc[nH]1)N1CCC(C2CN(C(=O)c3sc4cc(C(F)(F)F)ccc4c3Cl)C2)CC1 [Cpd 41, 4-(1-{[3-Chloro-6-(trifluoromethyl)-1-benzothiophen-2-yl]carbonyl}azetidin-3-yl)-1-(1H-pyrrol-2-ylcarbonyl)piperidine]
< 5 | 5.5 | 285 | 3.3 | O=C(c1ccc(-c2ccc(C(F)(F)F)s2)cc1)N1CCC(C2CN(C(=O)c3ccc[nH]3)C2)CC1 [Cpd 56, 4-[1-(1H-Pyrrol-2-ylcarbonyl)azetidin-3-yl]-1-({4-[5-(trifluoromethyl)thiophen-2-yl]phenyl}carbonyl)piperidine]
< 5 |  | 266 | 18 | O=C(c1cccc(-c2cccc(F)c2)c1)N1CCC(C2CN(C(=O)c3nccs3)C2)CC1 [Cpd 51, 1-[(3′-Fluorobiphenyl-3-yl)carbonyl]-4-[1-(1,3-thiazol-2-ylcarbonyl)azetidin-3-yl]piperidine]
